Test results taken from US20090170812A1, “Transcription factor modulating compounds and methods of use thereof” (priority 2006, published 2009).
pEC50: −log10 of the molar value.

Tests used:
[1] = test system: Yersinia pseudotuberculosis
[2] = biological target: T1, ExsA (Pseudomonas aeruginosa, UniProt P26993); assay: In vitro activity of Mar inhibitors against ExsA: cell-free DNA binding assay; details: purified ExsA from P. aeruginosa, inhibition of DNA binding in vitro
T1 construct: made in house
T1 sequence (P26993 1-278): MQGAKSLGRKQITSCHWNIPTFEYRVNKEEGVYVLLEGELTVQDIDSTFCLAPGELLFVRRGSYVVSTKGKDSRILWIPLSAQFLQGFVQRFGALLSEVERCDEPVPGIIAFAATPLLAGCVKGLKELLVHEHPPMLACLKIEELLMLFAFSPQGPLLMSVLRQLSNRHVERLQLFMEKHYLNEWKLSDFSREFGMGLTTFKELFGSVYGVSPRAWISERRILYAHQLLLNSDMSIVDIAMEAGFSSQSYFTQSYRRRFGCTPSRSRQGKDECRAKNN

[3] = test system: P. aeruginosa; assay: Whole cell assay: cytotoxicity of P. aeruginosa toward J774 cells (CytoTox 96, LDH release); details: percent cytotoxicity of treated P. aeruginosa toward J774 cells
[4] = biological target: LcrF (VirF) (Yersinia pestis, UniProt P28808); assay: biochemical; assay type: binding, Y. pseudotuberculosis
Chain of LcrF (VirF) (P28808 whole entry, looked up): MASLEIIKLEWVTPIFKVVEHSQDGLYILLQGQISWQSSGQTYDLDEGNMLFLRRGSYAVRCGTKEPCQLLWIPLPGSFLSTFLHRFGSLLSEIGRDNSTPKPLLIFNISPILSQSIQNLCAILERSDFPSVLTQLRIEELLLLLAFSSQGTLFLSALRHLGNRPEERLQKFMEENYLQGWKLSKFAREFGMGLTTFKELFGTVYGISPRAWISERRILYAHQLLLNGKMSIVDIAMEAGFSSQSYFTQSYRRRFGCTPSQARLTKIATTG

## CCOP(=O)(Cc1cc(/C=C/C(=O)Nc2ccc(-c3nc4ccc([N+](=O)[O-])cc4n3O)cc2)ccc1F)OCC [AT]
[1]
  Cytotoxicity at 50 μg/mL Yersinia: * (key: *: percent cytotoxicity above 75% at 50 μg/mL; **: cytotoxicities below 75% at 50 μg/mL)
[2]
  pEC50: > 5.00
[3]
  Cytotoxicity at 50 μg/mL Pseudomonas: * (percent cytotoxicities above 75% at 50 mg/mL)
[4]
  pEC50: > 5.00

## O=C(/C=C/c1ccc(F)cc1)Nc1ccc(-c2nc3ncc([N+](=O)[O-])cc3n2O)c(F)c1 [AV]
[1]
  Cytotoxicity at 50 μg/mL Yersinia: * (key: *: percent cytotoxicity above 75% at 50 μg/mL; **: cytotoxicities below 75% at 50 μg/mL)
[2]
  pEC50: > 5.00
[3]
  Cytotoxicity at 50 μg/mL Pseudomonas: * (percent cytotoxicities above 75% at 50 mg/mL)
[4]
  pEC50: > 5.00

## O=C(/C=C/c1ccc(F)cc1)Nc1ccc(-c2nc3ccc([N+](=O)[O-])cc3n2O)c(F)c1 [AW]
[1]
  Cytotoxicity at 50 μg/mL Yersinia: ** (key: *: percent cytotoxicity above 75% at 50 μg/mL; **: cytotoxicities below 75% at 50 μg/mL)
[2]
  pEC50: 4.60 to 5.00
[3]
  Cytotoxicity at 50 μg/mL Pseudomonas: * (percent cytotoxicities above 75% at 50 mg/mL)
[4]
  pEC50: > 5.00

## CC(=O)c1ccc(C(=O)Nc2ccc(-c3nc4cc(C)c([N+](=O)[O-])cc4n3O)cc2)cc1 [BE]
[1]
  Cytotoxicity at 50 μg/mL Yersinia: * (key: *: percent cytotoxicity above 75% at 50 μg/mL; **: cytotoxicities below 75% at 50 μg/mL)
[2]
  pEC50: > 5.00
[3]
  Cytotoxicity at 50 μg/mL Pseudomonas: * (percent cytotoxicities above 75% at 50 mg/mL)
[4]
  pEC50: > 5.00

## COc1cc(NC(=O)c2ccc(C(C)=O)cc2)ccc1-c1nc2ccc([N+](=O)[O-])cc2n1O [BG]
[1]
  Cytotoxicity at 50 μg/mL Yersinia: * (key: *: percent cytotoxicity above 75% at 50 μg/mL; **: cytotoxicities below 75% at 50 μg/mL)
[2]
  pEC50: 4.60 to 5.00
[3]
  Cytotoxicity at 50 μg/mL Pseudomonas: ** (cytotoxicities below 75% at 50 mg/mL)
[4]
  pEC50: < 4.60

## COc1cc(NC(=O)/C=C/c2ccc(F)cc2)ccc1-c1nc2ccc([N+](=O)[O-])cc2n1O [BH]
[1]
  Cytotoxicity at 50 μg/mL Yersinia: * (key: *: percent cytotoxicity above 75% at 50 μg/mL; **: cytotoxicities below 75% at 50 μg/mL)
[2]
  pEC50: 4.60 to 5.00
[3]
  Cytotoxicity at 50 μg/mL Pseudomonas: * (percent cytotoxicities above 75% at 50 mg/mL)
[4]
  pEC50: 4.60 to 5.00

## O=C(Nc1ccc(-c2nc3ccc([N+](=O)[O-])cc3n2O)cc1)C1=Cc2ccccc2OC1 [BM]
[1]
  Cytotoxicity at 50 μg/mL Yersinia: * (key: *: percent cytotoxicity above 75% at 50 μg/mL; **: cytotoxicities below 75% at 50 μg/mL)
[2]
  pEC50: 4.60 to 5.00
[3]
  Cytotoxicity at 50 μg/mL Pseudomonas: * (percent cytotoxicities above 75% at 50 mg/mL)
[4]
  pEC50: 4.60 to 5.00

## O=C(/C=C/c1ccc(F)cc1)Nc1ccc(-c2nc3ccc([N+](=O)[O-])cc3n2OCP(=O)(O)O)cc1 [Compound AL, (2-{4-[(E)-3-(4-Fluoro-phenyl)-acryloylamino]-phenyl}-6-nitro-benzoimidazol-1-yloxymethyl)-phosphonic Acid]
[1]
  Cytotoxicity at 50 μg/mL Yersinia: ** (key: *: percent cytotoxicity above 75% at 50 μg/mL; **: cytotoxicities below 75% at 50 μg/mL)
[2]
  pEC50: > 5.00
[3]
  Cytotoxicity at 50 μg/mL Pseudomonas: * (percent cytotoxicities above 75% at 50 mg/mL)
[4]
  pEC50: > 5.00

## CCOP(=O)(COn1c(-c2ccc(NC(=O)/C=C/c3ccc(F)cc3)cc2)nc2ccc([N+](=O)[O-])cc21)OCC [Compound AS, (2-{4-[(E)-3-(4-Fluoro-phenyl)-acryloylamino]-phenyl}-6-nitro-benzoimidazol-1-yloxymethyl)-phosphonic Acid Diethyl Ester]
[1]
  Cytotoxicity at 50 μg/mL Yersinia: * (key: *: percent cytotoxicity above 75% at 50 μg/mL; **: cytotoxicities below 75% at 50 μg/mL)
[2]
  pEC50: 4.60 to 5.00
[3]
  Cytotoxicity at 50 μg/mL Pseudomonas: * (percent cytotoxicities above 75% at 50 mg/mL)
[4]
  pEC50: < 4.60

## O=C(/C=C/c1ccc(F)cc1)Nc1ccc(-c2nc3ccc([N+](=O)[O-])cc3n2O)cc1F [Compound AZ, (E)-N-[2-Fluoro-4-(1-hydroxy-6-nitro-1H-benzoimidazol-2-yl)-phenyl]-3-(4-fluoro-phenyl)-acrylamide]
[1]
  Cytotoxicity at 50 μg/mL Yersinia: * (key: *: percent cytotoxicity above 75% at 50 μg/mL; **: cytotoxicities below 75% at 50 μg/mL)
[2]
  pEC50: 4.60 to 5.00
[3]
  Cytotoxicity at 50 μg/mL Pseudomonas: * (percent cytotoxicities above 75% at 50 mg/mL)
[4]
  pEC50: 4.60 to 5.00

## N#Cc1ccc2nc(-c3ccc(NC(=O)/C=C/c4ccccc4)cc3)n(O)c2c1 [Compound A]
[1]
  Cytotoxicity at 50 μg/mL Yersinia: * (key: *: percent cytotoxicity above 75% at 50 μg/mL; **: cytotoxicities below 75% at 50 μg/mL)
[2]
  pEC50: 4.60 to 5.00
[3]
  Cytotoxicity at 50 μg/mL Pseudomonas: * (percent cytotoxicities above 75% at 50 mg/mL)
[4]
  pEC50: 4.60 to 5.00

## CC(=O)c1ccc(C(=O)Nc2ccc(-c3nc4ccc([N+](=O)[O-])cc4n3O)cc2F)cc1 [Compound BA, 4-Acetyl-N-[2-fluoro-4-(1-hydroxy-6-nitro-1H-benzoimidazol-2-yl)-phenyl]-benzamide]
[1]
  Cytotoxicity at 50 μg/mL Yersinia: * (key: *: percent cytotoxicity above 75% at 50 μg/mL; **: cytotoxicities below 75% at 50 μg/mL)
[2]
  pEC50: > 5.00
[3]
  Cytotoxicity at 50 μg/mL Pseudomonas: * (percent cytotoxicities above 75% at 50 mg/mL)
[4]
  pEC50: 4.60 to 5.00

## Cc1cc2nc(-c3ccc(NC(=O)/C=C/c4ccc(F)cc4)cc3)n(O)c2cc1[N+](=O)[O-] [Compound BC, (E)-3-(4-Fluoro-phenyl)-N-[4-(1-hydroxy-5-methyl-6-nitro-1H-benzoimidazol-2-yl)-phenyl]-acrylamide]
[1]
  Cytotoxicity at 50 μg/mL Yersinia: ** (key: *: percent cytotoxicity above 75% at 50 μg/mL; **: cytotoxicities below 75% at 50 μg/mL)
[2]
  pEC50: > 5.00
[3]
  Cytotoxicity at 50 μg/mL Pseudomonas: ** (cytotoxicities below 75% at 50 mg/mL)
[4]
  pEC50: > 5.00

## O=C(/C=C/c1ccc(-n2cncn2)cc1)Nc1ccc(-c2nc3ccc([N+](=O)[O-])cc3n2O)cc1 [Compound BI, (E)-N-[4-(1-Hydroxy-6-nitro-1H-benzoimidazol-2-yl)-phenyl]-3-(4-[1,2,4]triazol-1-yl-phenyl)-acrylamide]
[1]
  Cytotoxicity at 50 μg/mL Yersinia: ** (key: *: percent cytotoxicity above 75% at 50 μg/mL; **: cytotoxicities below 75% at 50 μg/mL)
[2]
  pEC50: > 5.00
[3]
  Cytotoxicity at 50 μg/mL Pseudomonas: ** (cytotoxicities below 75% at 50 mg/mL)
[4]
  pEC50: < 4.60

## CCOc1cc2nc(-c3ccc(NC(=O)/C=C/c4ccc(F)cc4)cc3)n(O)c2cc1[N+](=O)[O-] [Compound BJ, (E)-N-[4-(5-Ethoxy-1-hydroxy-6-nitro-1H-benzoimidazol-2-yl)-phenyl]-3-(4-fluoro-phenyl)-acrylamide]
[1]
  Cytotoxicity at 50 μg/mL Yersinia: ** (key: *: percent cytotoxicity above 75% at 50 μg/mL; **: cytotoxicities below 75% at 50 μg/mL)
[2]
  pEC50: > 5.00
[3]
  Cytotoxicity at 50 μg/mL Pseudomonas: ** (cytotoxicities below 75% at 50 mg/mL)
[4]
  pEC50: 4.60 to 5.00

## Cc1cc2nc(-c3ccc(NC(=O)c4ccc(-c5cnco5)cc4)cc3)n(O)c2cc1[N+](=O)[O-] [Compound BL, N-[4-(1-Hydroxy-5-methyl-6-nitro-1H-benzoimidazol-2-yl)-phenyl]-4-oxazol-5-yl-benzamide]
[1]
  Cytotoxicity at 50 μg/mL Yersinia: ** (key: *: percent cytotoxicity above 75% at 50 μg/mL; **: cytotoxicities below 75% at 50 μg/mL)
[2]
  pEC50: > 5.00
[3]
  Cytotoxicity at 50 μg/mL Pseudomonas: ** (cytotoxicities below 75% at 50 mg/mL)
[4]
  pEC50: < 4.60

## CN(C)c1cc2nc(-c3ccc(NC(=O)/C=C/c4ccc(F)cc4)cc3)n(O)c2cc1[N+](=O)[O-] [Compound BN, N-[4-(5-Dimethylamino-1-hydroxy-6-nitro-1H-benzoimidazol-2-yl)-phenyl]-3-(4-fluorocinnamyl)-amide]
[1]
  Cytotoxicity at 50 μg/mL Yersinia: ** (key: *: percent cytotoxicity above 75% at 50 μg/mL; **: cytotoxicities below 75% at 50 μg/mL)
[2]
  pEC50: 4.60 to 5.00
[3]
  Cytotoxicity at 50 μg/mL Pseudomonas: ** (cytotoxicities below 75% at 50 mg/mL)
[4]
  pEC50: < 4.60

## N#Cc1ccc2nc(-c3ccc(NC(=O)/C=C/c4ccc(F)cc4)cc3)n(O)c2c1 [Compound B]
[1]
  Cytotoxicity at 50 μg/mL Yersinia: ** (key: *: percent cytotoxicity above 75% at 50 μg/mL; **: cytotoxicities below 75% at 50 μg/mL)
[2]
  pEC50: > 5.00
[3]
  Cytotoxicity at 50 μg/mL Pseudomonas: ** (cytotoxicities below 75% at 50 mg/mL)
[4]
  pEC50: > 5.00

## CC(=O)c1ccc(C(=O)Nc2ccc(-c3nc4ccc(C#N)cc4n3O)cc2)cc1 [Compound C]
[1]
  Cytotoxicity at 50 μg/mL Yersinia: ** (key: *: percent cytotoxicity above 75% at 50 μg/mL; **: cytotoxicities below 75% at 50 μg/mL)
[2]
  pEC50: > 5.00
[3]
  Cytotoxicity at 50 μg/mL Pseudomonas: ** (cytotoxicities below 75% at 50 mg/mL)
[4]
  pEC50: < 4.60

## N#Cc1ccc(C(=O)Nc2ccc(-c3nc4ccc(C#N)cc4n3O)cc2)cc1 [D]
[1]
  Cytotoxicity at 50 μg/mL Yersinia: ** (key: *: percent cytotoxicity above 75% at 50 μg/mL; **: cytotoxicities below 75% at 50 μg/mL)
[2]
  pEC50: > 5.00
[3]
  Cytotoxicity at 50 μg/mL Pseudomonas: * (percent cytotoxicities above 75% at 50 mg/mL)
[4]
  pEC50: > 5.00

## Cc1ccc(/C=C/C(=O)Nc2ccc(-c3nc4ccc(C#N)cc4n3O)cc2)cc1 [E]
[1]
  Cytotoxicity at 50 μg/mL Yersinia: ** (key: *: percent cytotoxicity above 75% at 50 μg/mL; **: cytotoxicities below 75% at 50 μg/mL)
[2]
  pEC50: > 5.00
[3]
  Cytotoxicity at 50 μg/mL Pseudomonas: * (percent cytotoxicities above 75% at 50 mg/mL)
[4]
  pEC50: 4.60 to 5.00

## O=C(Nc1ccc(-c2nc3ccc([N+](=O)[O-])cc3n2O)cc1)/C(=C/c1ccccc1)c1ccccc1 [F]
[1]
  Cytotoxicity at 50 μg/mL Yersinia: * (key: *: percent cytotoxicity above 75% at 50 μg/mL; **: cytotoxicities below 75% at 50 μg/mL)
[2]
  pEC50: 4.60 to 5.00
[3]
  Cytotoxicity at 50 μg/mL Pseudomonas: ** (cytotoxicities below 75% at 50 mg/mL)
[4]
  pEC50: > 5.00

## O=C(Nc1ccc(-c2nc3ccc([N+](=O)[O-])cc3n2O)cc1)/C(F)=C/c1ccccc1 [G]
[1]
  Cytotoxicity at 50 μg/mL Yersinia: * (key: *: percent cytotoxicity above 75% at 50 μg/mL; **: cytotoxicities below 75% at 50 μg/mL)
[2]
  pEC50: > 5.00
[3]
  Cytotoxicity at 50 μg/mL Pseudomonas: ** (cytotoxicities below 75% at 50 mg/mL)
[4]
  pEC50: 4.60 to 5.00
